Source: patent publication US20100179188A1, “NITROXIDE RADICAL AS TREATMENT FOR NEURODEGENERATION” (Office of Technology Transfer, NIH, priority 2007, published 2010)

Molecular target: T1, IRP1 (Mus musculus, UniProt P28271)
T1 sequence (P28271 1-889): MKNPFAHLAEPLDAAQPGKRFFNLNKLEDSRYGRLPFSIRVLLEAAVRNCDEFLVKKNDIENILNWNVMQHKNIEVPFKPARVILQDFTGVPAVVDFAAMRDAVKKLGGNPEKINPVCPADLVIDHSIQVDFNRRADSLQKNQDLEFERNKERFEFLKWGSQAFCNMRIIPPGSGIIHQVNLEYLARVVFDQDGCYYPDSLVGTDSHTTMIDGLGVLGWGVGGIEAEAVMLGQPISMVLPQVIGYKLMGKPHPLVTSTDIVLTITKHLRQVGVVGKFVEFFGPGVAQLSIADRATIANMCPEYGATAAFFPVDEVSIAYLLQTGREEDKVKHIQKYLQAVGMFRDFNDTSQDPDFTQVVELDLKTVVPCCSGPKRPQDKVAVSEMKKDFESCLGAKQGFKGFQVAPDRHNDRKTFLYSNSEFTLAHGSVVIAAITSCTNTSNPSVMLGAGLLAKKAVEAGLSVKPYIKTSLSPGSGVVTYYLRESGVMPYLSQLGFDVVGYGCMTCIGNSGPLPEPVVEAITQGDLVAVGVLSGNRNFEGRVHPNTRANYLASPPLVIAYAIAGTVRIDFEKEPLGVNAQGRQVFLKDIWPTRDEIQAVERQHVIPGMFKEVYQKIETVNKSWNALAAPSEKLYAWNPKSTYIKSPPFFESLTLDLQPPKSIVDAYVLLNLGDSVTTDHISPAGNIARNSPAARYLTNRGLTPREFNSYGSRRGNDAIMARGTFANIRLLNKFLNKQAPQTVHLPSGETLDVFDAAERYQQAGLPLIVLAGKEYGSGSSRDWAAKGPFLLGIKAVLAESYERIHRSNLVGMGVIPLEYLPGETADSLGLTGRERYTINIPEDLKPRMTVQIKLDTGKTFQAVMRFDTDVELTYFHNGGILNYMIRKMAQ
Assay: Gel-shift of IRP1 in wild type and IRP2−/− mouse embryonic fibroblasts after Tempo1 or DFO and washout
Type: cell-based
Set-up: Embryonic fibroblasts of 13-day old embryos were isolated from wild type, IRP1−/− mice and IRP2−/− mice; endogenous in cells; host or cells: mouse embryonic fibroblasts (wild type and IRP2−/−)
Experimental: Cells: Embryonic fibroblasts of 13-day old embryos were isolated from wild type, IRP1−/− mice and IRP2−/− mice as described in LaVaute et al. supra. Myc-tagged HEK 293 Tet-on cell line, in which IRP2 expression was inducible, was prepared and cultured as described Bourdon et al., Blood Cells Mol Dis, 31, 247-255 (2003). Erythroblasts were harvested from bone marrow and purified as described in Cooperman et al., Blood, 106, 1084-1091 (2005).
RNA mobility shift assays: Gel retardation assays were performed as described in Meyron-Holtz et al., EMBO J, 23, 386-395 (2004). Tissue lysates were prepared in an anaerobic chamber as described above in oxygen-depleted lysis buffer containing 10 mM HEPES (pH 7.2), 3 mM MgC12, 40 mM KCl, 5% glycerol, 0.2% Nonidet P-40, 5 mM DTT, 1 mM AEBSF, 10 μg/ml. Leupeptin and complete TM EDTA free protease inhibitor cocktail (Roche Applied Science, Indiana). Lysate (x μl) containing 10 μg of total protein was added to (12.5−x) μl of bandshift buffer containing 25 mM Tris-HCl (pH 7.5) and 40 mM KCl. The samples were incubated for 5 min at room temperature (RT) with 12.5 μl of a reaction cocktail containing 20% glycerol, 0.2 U/μl Super RNAsine (Ambion, Tex.), 0.6 μg/μl yeast t-RNA, 5 mM DTT and 20 nM 32P-labelled IRE from human ferritin H-chain gene in 25 mM Tris-HCl (pH 7.5) and 40 mM KCl. A measure of 20 μl of this reaction mixture was loaded into a 10% acrylamide/TBE gel, which was run at 200 V for 2.15 h, and then the gel was fixed, dried and exposed for autoradiography.
To determine whether the effect of Tempo1 on IRP1 activity was kinetically consistent with oxidative disassembly of the iron sulfur cluster, the effect of Tempo1 on aconitase activity was compared to that of the iron chelator, deferiprone (DFO), which activates IRE-binding activity of IRP1 by limiting de novo synthesis and repair of the iron sulfur cluster in IRP1. […] Recovery of aconitase activity was assessed in wild type and IRP2−/− cells.

Compound: CC1(C)CC(O)CC(C)(C)N1[O] [Tempo1]
- time to reversal of the activation of IRE-binding activity after removal (mouse embryonic fibroblasts, 16 hours treatment, then fresh unsupplemented media): ≤ 2 h
- IRE-binding activity of IRP1 (wild type and IRP2−/− mouse embryonic fibroblasts treated 16 hours): activated
